Results from ChEMBL document CHEMBL1157129, “Synthesis and antiprotozoal activity of 2,5-bis[amidinoaryl]thiazoles” (Bioorg Med Chem, 2010).
The source made the active and inactive calls. The rule behind the calls is not given here.

The molecules below were run on Trypanosoma brucei rhodesiense (assay: Antitrypanosomal activity against Trypanosoma brucei rhodesiense STIB900). Settings: not given.
Type: functional, organism-based
Work on `Cl.Cl.N=C(N)c1ccc(-c2cnc(-c3ccc(C(=N)N)cn3)s2)cc1` yielded an IC50 of 16 nM.
For `N=C(N)c1ccc(-c2ccc(-c3ccc(C(=N)N)cc3)s2)cc1`, the IC50 was 3 nM.
`Cl.Cl.N=C(N)c1ccc(-c2cnc(-c3ccc(C(=N)N)cc3)s2)cc1` was tested, and the IC50 was 4 nM.
`Cl.Cl.N=C(N)c1ccc(-c2ncc(-c3ccc(C(=N)N)nc3)s2)nc1` showed an IC50 of 38 nM.
`Cl.Cl.N=C(N)c1ccc(-c2cnc(-c3ccc(C(=N)N)nc3)s2)cn1` gave an IC50 of 6 nM.
`Cl.Cl.N=C(N)c1ccc(-c2cnc(-c3ccc(C(=N)N)cn3)s2)nc1` gave an IC50 of 176 nM.
With `Cl.Cl.N=C(N)c1ccc(-c2cnc(-c3ccc(C(=N)N)nc3)s2)cc1` the IC50 was 4 nM.
For `Cl.Cl.N=C(N)c1ccc(-c2ncc(-c3ccc(C(=N)N)nc3)s2)cc1`, the IC50 was 6 nM.

The molecules below were run on L6 (assay: Cytotoxicity against rat L6 cells). Settings: not given.
Type: cell-based
Work on `Cl.Cl.N=C(N)c1ccc(-c2cnc(-c3ccc(C(=N)N)cn3)s2)cc1` yielded an IC50 of 102000 nM.
`Cl.Cl.N=C(N)c1ccc(-c2ncc(-c3ccc(C(=N)N)nc3)s2)nc1` gave an IC50 of 37400 nM.
With `Cl.Cl.N=C(N)c1ccc(-c2cnc(-c3ccc(C(=N)N)nc3)s2)cn1` the IC50 was 1400 nM.
For `Cl.Cl.N=C(N)c1ccc(-c2cnc(-c3ccc(C(=N)N)cn3)s2)nc1`, the IC50 was > 195000 nM.
For `Cl.Cl.N=C(N)c1ccc(-c2cnc(-c3ccc(C(=N)N)nc3)s2)cc1`, the IC50 was 1800 nM.
`Cl.Cl.N=C(N)c1ccc(-c2ncc(-c3ccc(C(=N)N)nc3)s2)cc1` showed an IC50 of 40200 nM.
Molecule `N=C(N)c1ccc(-c2ccc(-c3ccc(C(=N)N)cc3)o2)cc1` [FURAMIDINE] has an IC50 of 6500 nM.

The molecules below were run on Trypanosoma brucei rhodesiense (assay: Antitrypanosomal activity against Trypanosoma brucei rhodesiense STIB900 in infected mouse model assessed as parasitemia cure in host at 5 mg/kg, ip for 4 days). Settings: not given.
Type: functional, organism-based
Set-up: dose 5 mg/kg
For `Cl.Cl.N=C(N)c1ccc(-c2cnc(-c3ccc(C(=N)N)cn3)s2)cc1`, the Activity was “inactive”.
For `Cl.Cl.N=C(N)c1ccc(-c2ncc(-c3ccc(C(=N)N)nc3)s2)nc1`, the Activity was “inactive”.
With `CONC(=N)c1ccc(-c2ccc(-c3ccc(C(=N)NOC)cc3)o2)cc1` [PAFURAMIDINE] the Activity was “inactive”.
With `Cl.Cl.N=C(N)c1ccc(-c2cnc(-c3ccc(C(=N)N)nc3)s2)cn1` the Activity was “inactive”.
`Cl.Cl.N=C(N)c1ccc(-c2cnc(-c3ccc(C(=N)N)cn3)s2)nc1` was tested, and the Activity was “inactive”.
With `Cl.Cl.N=C(N)c1ccc(-c2cnc(-c3ccc(C(=N)N)nc3)s2)cc1` the Activity was “inactive”.
In the case of `CO/N=C(\N)c1ccc(-c2ccc(-c3ccc(/C(N)=N/OC)cn3)o2)cc1`, the Activity is reported as “Active”.
With `Cl.Cl.N=C(N)c1ccc(-c2ncc(-c3ccc(C(=N)N)nc3)s2)cc1` the Activity was “inactive”.

What follows are molecules tested on Plasmodium falciparum (assay: Antiplasmodial activity against Plasmodium falciparum K1). Settings: not given.
Type: functional, organism-based
Work on `Cl.Cl.N=C(N)c1ccc(-c2cnc(-c3ccc(C(=N)N)cn3)s2)cc1` yielded an IC50 of 12.5 nM.
Molecule `N=C(N)c1ccc(-c2ccc(-c3ccc(C(=N)N)cc3)s2)cc1` has an IC50 of 13.8 nM.
For `Cl.Cl.N=C(N)c1ccc(-c2cnc(-c3ccc(C(=N)N)cc3)s2)cc1`, the IC50 was 2 nM.
With `Cl.Cl.N=C(N)c1ccc(-c2ncc(-c3ccc(C(=N)N)nc3)s2)nc1` the IC50 was 13 nM.
`Cl.Cl.N=C(N)c1ccc(-c2cnc(-c3ccc(C(=N)N)nc3)s2)cn1` showed an IC50 of 1.1 nM.
Molecule `Cl.Cl.N=C(N)c1ccc(-c2cnc(-c3ccc(C(=N)N)cn3)s2)nc1` has an IC50 of 24.6 nM.
`Cl.Cl.N=C(N)c1ccc(-c2cnc(-c3ccc(C(=N)N)nc3)s2)cc1` gave an IC50 of 2.5 nM.
Molecule `Cl.Cl.N=C(N)c1ccc(-c2ncc(-c3ccc(C(=N)N)nc3)s2)cc1` has an IC50 of 2.4 nM.

The molecules below were run on Trypanosoma brucei rhodesiense (assay: Antitrypanosomal activity against Trypanosoma brucei rhodesiense STIB900 in infected mouse model assessed as parasitemia cure in host at 25 mg/kg, po for 4 days). Settings: not given.
Type: functional, organism-based
Set-up: dose 25 mg/kg
`Cl.Cl.N/C(=N\O)c1ccc(-c2cnc(-c3ccc(/C(N)=N\O)cn3)s2)cc1` was tested, and the Activity was “inactive”.
For `CO/N=C(\N)c1ccc(-c2cnc(-c3ccc(/C(N)=N/OC)nc3)s2)cc1.Cl`, the Activity was “inactive”.
`CO/N=C(\N)c1ccc(-c2cnc(-c3ccc(/C(N)=N\OC)cn3)s2)nc1.Cl.Cl` was tested, and the Activity was “inactive”.
With `Cl.Cl.N/C(=N\O)c1ccc(-c2cnc(-c3ccc(/C(N)=N\O)cn3)s2)nc1` the Activity was “inactive”.
With `CO/N=C(\N)c1ccc(-c2cnc(-c3ccc(/C(N)=N\OC)cn3)s2)cc1.Cl.Cl` the Activity was “inactive”.
For `Cl.Cl.N/C(=N\O)c1ccc(-c2ncc(-c3ccc(/C(N)=N\O)nc3)s2)cc1`, the Activity was “inactive”.
`CONC(=N)c1ccc(-c2ccc(-c3ccc(C(=N)NOC)cc3)o2)cc1` [PAFURAMIDINE] was tested, and the Activity was “Active”.
With `CO/N=C(/N)c1ccc(-c2cnc(-c3ccc(/C(N)=N\OC)cc3)s2)cc1.Cl.Cl` the Activity was “inactive”.
In the case of `Cl.Cl.N/C(=N\O)c1ccc(-c2cnc(-c3ccc(/C(N)=N/O)nc3)s2)cc1`, the Activity is reported as “inactive”.
`Cl.Cl.N/C(=N/O)c1ccc(-c2cnc(-c3ccc(/C(N)=N\O)cc3)s2)cc1` was tested, and the Activity was “inactive”.

What follows are molecules tested on Trypanosoma brucei rhodesiense (assay: Antitrypanosomal activity against Trypanosoma brucei rhodesiense STIB900 in infected mouse model assessed as host survival time at 25 mg/kg, po for 4 days). Settings: not given.
Type: functional
Work on `Cl.Cl.N/C(=N\O)c1ccc(-c2cnc(-c3ccc(/C(N)=N\O)cn3)s2)cc1` yielded a Survival of 24 days.
`CO/N=C(\N)c1ccc(-c2cnc(-c3ccc(/C(N)=N/OC)nc3)s2)cc1.Cl` gave a Survival of 42.8 days.
Work on `CO/N=C(\N)c1ccc(-c2cnc(-c3ccc(/C(N)=N\OC)cn3)s2)nc1.Cl.Cl` yielded a Survival of 9 days.
`Cl.Cl.N/C(=N\O)c1ccc(-c2cnc(-c3ccc(/C(N)=N\O)cn3)s2)nc1` gave a Survival of 9 days.
`CO/N=C(\N)c1ccc(-c2cnc(-c3ccc(/C(N)=N\OC)cn3)s2)cc1.Cl.Cl` gave a Survival of 35 days.
Molecule `Cl.Cl.N/C(=N\O)c1ccc(-c2cnc(-c3ccc(/C(N)=N\O)nc3)s2)cn1` has a Survival of 24 days.
`Cl.Cl.N/C(=N\O)c1ccc(-c2ncc(-c3ccc(/C(N)=N\O)nc3)s2)cc1` was tested, and the Survival was 36.8 days.
For `CONC(=N)c1ccc(-c2ccc(-c3ccc(C(=N)NOC)cc3)o2)cc1` [PAFURAMIDINE], the Survival was >60 days.
`CO/N=C(/N)c1ccc(-c2cnc(-c3ccc(/C(N)=N\OC)cc3)s2)cc1.Cl.Cl` showed a Survival of 41 days.
With `Cl.Cl.N/C(=N\O)c1ccc(-c2cnc(-c3ccc(/C(N)=N/O)nc3)s2)cc1` the Survival was 37.5 days.
In the case of `CO/N=C(\N)c1ccc(-c2cnc(-c3ccc(/C(N)=N\OC)nc3)s2)cn1.Cl.Cl`, the Survival is reported as 9 days.
In the case of `CO/N=C(\N)c1ccc(-c2ccc(-c3ccc(/C(N)=N/OC)cn3)o2)cc1`, the Survival is reported as >60 days.
For `Cl.Cl.N/C(=N/O)c1ccc(-c2cnc(-c3ccc(/C(N)=N\O)cc3)s2)cc1`, the Survival was 35 days.

The molecules below were run on Trypanosoma brucei rhodesiense (assay: Antitrypanosomal activity against Trypanosoma brucei rhodesiense STIB900 in infected mouse model assessed as host survival time at 5 mg/kg, ip for 4 days). Settings: route intraperitoneal.
Type: functional
Work on `Cl.Cl.N=C(N)c1ccc(-c2cnc(-c3ccc(C(=N)N)cn3)s2)cc1` yielded a Survival of 30.25 days.
For `N=C(N)c1ccc(-c2ccc(-c3ccc(C(=N)N)cc3)s2)cc1`, the Survival was >48.75 days.
With `Cl.Cl.N=C(N)c1ccc(-c2cnc(-c3ccc(C(=N)N)cc3)s2)cc1` the Survival was >44.5 days.
For `Cl.Cl.N=C(N)c1ccc(-c2ncc(-c3ccc(C(=N)N)nc3)s2)nc1`, the Survival was 29.25 days.
`CONC(=N)c1ccc(-c2ccc(-c3ccc(C(=N)NOC)cc3)o2)cc1` [PAFURAMIDINE] showed a Survival of 30 days.
Work on `Cl.Cl.N=C(N)c1ccc(-c2cnc(-c3ccc(C(=N)N)nc3)s2)cn1` yielded a Survival of 50.5 days.
Work on `Cl.Cl.N=C(N)c1ccc(-c2cnc(-c3ccc(C(=N)N)cn3)s2)nc1` yielded a Survival of 21.5 days.
For `N=C(N)c1ccc(OCCCCCOc2ccc(C(=N)N)cc2)cc1` [PENTAMIDINE], the Survival was 45 days.
For `Cl.Cl.N=C(N)c1ccc(-c2cnc(-c3ccc(C(=N)N)nc3)s2)cc1`, the Survival was 44.5 days.
For `CO/N=C(\N)c1ccc(-c2ccc(-c3ccc(/C(N)=N/OC)cn3)o2)cc1`, the Survival was >60 days.
In the case of `N=C(N)c1ccc(-c2ccc(-c3ccc(C(=N)N)cn3)o2)cc1`, the Survival is reported as >54.5 days.
For `Cl.Cl.N=C(N)c1ccc(-c2ncc(-c3ccc(C(=N)N)nc3)s2)cc1`, the Survival was > 36 days.
`N=C(N)c1ccc(-c2ccc(-c3ccc(C(=N)N)cc3)o2)cc1` [FURAMIDINE] was tested, and the Survival was >46 days.
